Measured values published in patent US20100130618A1, “TREATMENT OF HUMAN DISEASE CONDITIONS AND DISORDERS USING VITAMIN K ANALOGUES AND DERIVATIVES” (priority 2007, published 2010).
Like-named read-outs stand apart in the source and are kept apart here.

Tests used:
Guinea Pig ileum [1] = assay: Guinea pig ileum, acetylcholine induced smooth muscle contraction; settings: for inhibition of acetylcholine induced smooth muscle contraction: acetylcholine 50 μg/ml; for smooth muscle relaxant activity (inference): overall inference from guinea pig ileum data
Protocol: (§1) Muscle relaxant activity was evaluated of pure test samples PK and MK-4 with Frog Rectus Abdominus Muscle and Guinea Pig ileum.
(§2) To evaluate the effect of test samples on smooth muscle contraction induced by (a) Acetylcholine (Neurotransmitter) which acts on […] receptors, (b) Histamine that causes a transient rise of cytosolic calcium, which is mediated by H1 receptor coupling that triggers release of internal calcium stores and (c) Barium that enters the cell through a voltage dependent calcium channel and, either directly or indirectly, interacts with calmodulin.
(§3) Test Samples were PK-400 μg/ml and MK-4-400 μg/ml

Guinea Pig ileum [2] = assay: Guinea pig ileum, barium chloride induced smooth muscle contraction; settings: dose 640 μg (1.6 ml); barium chloride 1%
Protocol: as §1, §2, §3

Guinea Pig ileum [3] = assay: Guinea pig ileum, histamine induced smooth muscle contraction; settings: dose 640 μg (1.6 ml); histamine 25 μg/ml
Protocol: as §1, §2, §3

[4] = tested on: Frog Rectus Abdominus Muscle; assay: Frog rectus abdominus muscle preparation, acetylcholine induced skeletal muscle contraction; settings: for antagonism of contraction induced by acetylcholine (40 μg): dose of 400 μg; for activity on skeletal muscle contraction (inference): overall inference
Protocol: as §1
B) Frog Rectus Abdominus Muscle Preparation
To evaluate the effect of test samples on skeletal muscle contraction induced by Acetylcholine (Neurotransmitter).
Acetylcholine: 100 mcg/ml
as §3

Frog Heart = assay: Frog heart, adrenaline-induced contractions; settings: for inhibition of adrenaline-induced contractions: 0.1 ml (40 μg), 0.2 ml (80 μg) and 0.4 ml (160 μg), adrenaline 40 μg/ml; for beta blocker activity (inference): overall inference from adrenalic response
Protocol: Frog Heart Adrenaline: 40 μg/ml

[5] = Clinical case studies of oral MK-7 (Examples 1-10); assay type: in vivo, humans
Source text: Examples 1-10 enumerate clinical case studies data and Examples 11 and 12 provide in vitro experiments.

[6] = cited from earlier work
[7] = cited from earlier work; remark: listed apart in the source
[8] = cited from earlier work; remark: listed apart in the source
[9] = 50 gms natto per day with 865, 1295 or 1730 μg MK-7 per 100 g; cited from earlier work
[10] = Example 02: MK-7 p.o. every day
[11] = Example 05: person, 100 μg per day

Q: What does the source list for CC(C)=CCC/C(C)=C/CC/C(C)=C/CC/C(C)=C/CC1=C(C)C(=O)c2ccccc2C1=O [MK-4, menatetrenone]?
A: inhibition of acetylcholine induced smooth muscle contraction (Guinea Pig ileum [1]; dose 80 μg (0.2 ml)): 21.62%; inhibition of acetylcholine induced smooth muscle contraction (Guinea Pig ileum [1]; dose 160 μg (0.4 ml)): 40%; inhibition of acetylcholine induced smooth muscle contraction (Guinea Pig ileum [1]; dose 320 μg (0.8 ml)): 81.81%; smooth muscle relaxant activity (inference) (Guinea Pig ileum [1]): demonstrate a smooth muscle relaxant activity; inhibition of barium chloride induces smooth muscle contraction (Guinea Pig ileum [2]): 29%; inhibition of histamine induced smooth muscle contraction (Guinea Pig ileum [3]): 29.4%; antagonism of contraction induced by acetylcholine (40 μg) [4]: not antagonized; activity on skeletal muscle contraction (inference) [4]: failed to exhibit activity; inhibition of adrenaline-induced contractions (Frog Heart): failed to inhibit; beta blocker activity (inference) (Frog Heart): do not exhibit beta blocker activity

Q: Which “tingling, numbness and burning of feet” value ([5]; Example 01: person, type 2 diabetes, MK-7 100 μg per day for 2 months) does the source give for CC(C)=CCC/C(C)=C/CC/C(C)=C/CC/C(C)=C/CC/C(C)=C/CC/C(C)=C/CC/C(C)=C/CC1=C(C)C(=O)c2ccccc2C1=O [MK-7] here?
A: The value was “complete relief”.

Q: What about the “skin hyper pigmentation of nape of neck” value ([5]; Example 01: person, type 2 diabetes, MK-7 for one and a half years) of the same molecule?
A: The value was “almost subsided”.

Q: And the “energy levels and fatigue” value ([5]; Example 02: MK-7 added to schedule)?
A: Its value is “higher energy levels and less fatigue”.

Q: What about the paper-money skin appearance [5, 10] of the same molecule?
A: The paper-money skin appearance was “much reduced”.

Q: And the tingling and numbness [5, 10]?
A: Its tingling and numbness is “reduced markedly”.

Q: And the “frequency of mild cramps” value ([5]; Example 02: MK-7 p.o. every day, over the next four months (before: 2 to 3 times in a week))?
A: Its value is “one or two in a month”.

Q: What about the “severity and frequency of muscle cramps” value ([5]; Example 02: person, type 2 diabetes, hypertension, MK-7 p.o. every day, over the next two weeks) of the same molecule?
A: The value was “steadily decreased”.

Q: What about the “cramps during night and day” value ([5]; Example 03: person, 100 μg one tablet per day, after six months) of the same molecule?
A: Its value is “disappeared”.

Q: What about the “rough skin on both heels” value ([5]; Example 04: person, daily dose 200 μg, within 10-15 days) of the same molecule?
A: Its value is “completely lost roughness and became smooth”.

Q: And the scalp hair-loss [5, 11]?
A: Its scalp hair-loss is “stopped distinctly”.

Q: What about the skin of feet [5, 11] of the same molecule?
A: Its skin of feet is “smoothness of skin of their feet, diminution of cracks in the feet”.

Q: And the “hyper pigmentation and paper-money skin of lower limbs” value ([5]; Example 05: person, p.o. 100 μg per day)?
A: Its value is “gradually reduced to a bare minimum”.

Q: What about the “frequency, duration and severity of leg cramps” value ([5]; Example 06: person, 100 μg two times a day) of the same molecule?
A: The value was “decreased”.

Q: What about the skin lightening ([5]; Example 07: 100 μg twice a day, another 3 months (6 months total)) of the same molecule?
A: Its skin lightening is “considerable lightening of the skin”.

Q: And the “hyper pigmentation of face, arms and neck” value ([5]; Example 07: person, 100 μg twice a day, after 2 to 3 months)?
A: Its value is “decreased”.

Q: And the nail growth ([5]; Example 08: 200 μg per day, over 2 months)?
A: The nail growth was “grows faster”.

Q: And the “severity of cramps after marathon” value ([5]; Example 08: athlete, 200 μg per day, within 2 months)?
A: Its value is “lowered”.

Q: What about the “residual neuropathy symptoms (tingling, numbness, paresthesiae, burning sensation)” value ([5]; Example 09: diabetic, 100 μg per day, within 15 days) of the same molecule?
A: Its value is “disappears completely”.

Q: What about the “frequency of restless legs syndrome” value ([5]; Example 10: 200 μg per day for 1 year (before: every night)) of the same molecule?
A: The value was “once or twice a month”.

Q: And the restless legs syndrome ([5]; Example 10: person, 200 μg per day, within 2 weeks)?
A: The restless legs syndrome was “reduced considerably”.

Q: What about the “concentration relative to the peak value concentration (Cmax) achieved by PK” value ([6]; at 72 hrs) of the same molecule?
A: The value was > 50%.

Q: What about the detectability in circulation ([6]; at 72 hrs) of the same molecule?
A: Its detectability in circulation is “remains detectable”.

Q: And the half life ([6]; in vivo)?
A: The half life was 50 h.

Q: What about the “reduction (mid tertile)” value ([7]; dietary intake 24 μg per day mid tertile vs 12 μg per day lower tertile) of the same molecule?
A: Its value is 25%.

Q: What about the “reduction in CHD mortality and aortic calcification” value ([7]; dietary intake 45 μg per day upper tertile vs 12 μg per day lower tertile, 10 years follow-up) of the same molecule?
A: The value was 50%.

Q: What about the “reduction in all cause mortality” value ([7]; dietary intake 45 μg per day upper tertile vs 12 μg per day lower tertile) of the same molecule?
A: The value was 25%.

Q: What about the “serum MK-7 concentration (mean±SD)” value ([8]; British women) of the same molecule?
A: The value was 0.37 ± 0.20 ng/mL.

Q: What about the “serum MK-7 concentration (mean±SD)” value ([8]; Japanese women in Hiroshima) of the same molecule?
A: The value was 1.22 ± 1.85 ng/mL.

Q: And the “serum MK-7 concentration (mean±SD)” value ([8]; Japanese women in Tokyo)?
A: Its value is 5.26 ± 6.13 ng/mL.

Q: And the “serum MK-7 concentration and γ-carboxylated osteocalcin concentration” value [9]?
A: Its value is “elevated parallel to the administered level”.

Q: With CC1=C(C/C=C(\C)CCC[C@H](C)CCC[C@H](C)CCCC(C)C)C(=O)c2ccccc2C1=O [PK, phylloquinone] as the molecule, how does the “inhibition of acetylcholine induced smooth muscle contraction” value (Guinea Pig ileum [1]; dose 320 μg (0.8 ml)) read?
A: The value was 38.46%.

Q: What about the “inhibition of acetylcholine induced smooth muscle contraction” value (Guinea Pig ileum [1]; dose 640 μg (1.6 ml)) of the same molecule?
A: Its value is 46.15%.

Q: And the “smooth muscle relaxant activity (inference)” value (Guinea Pig ileum [1])?
A: Its value is “demonstrate a smooth muscle relaxant activity”.

Q: And the “inhibition of barium chloride induces smooth muscle contraction” value (Guinea Pig ileum [2])?
A: The value was 31%.

Q: What about the “inhibition of histamine induced smooth muscle contraction” value (Guinea Pig ileum [3]) of the same molecule?
A: The value was 37.16%.

Q: What about the “antagonism of contraction induced by acetylcholine (40 μg)” value [4] of the same molecule?
A: Its value is “not antagonized”.

Q: What about the “activity on skeletal muscle contraction (inference)” value [4] of the same molecule?
A: The value was “failed to exhibit activity”.

Q: And the “inhibition of adrenaline-induced contractions” value (Frog Heart)?
A: Its value is “failed to inhibit”.

Q: And the “beta blocker activity (inference)” value (Frog Heart)?
A: The value was “do not exhibit beta blocker activity”.

Q: What about the elimination half life ([6]; in vivo) of the same molecule?
A: Its elimination half life is 1.5 h.

Q: And the absorption from vegetables ([6]; taken together with 30 g fat)?
A: The absorption from vegetables was 10-15%.

Q: What about the absorption from vegetables ([6]; without concomitant fat intake) of the same molecule?
A: Its absorption from vegetables is 5-10%.

Q: Which “inhibition of adrenaline response” value (Frog Heart; reference competitive inhibitor of adrenaline, FIG. 6) does the source give for CC(C)NCC(O)COc1cccc2ccccc12 (stereo not drawn) [Propanolol] here?
A: Its value is “found to inhibit adrenaline response”.

Q: Which tingling and numbness ([5]; Example 02: vitamin B12 deficiency on Metformin, injections 500 μg over 2 weeks, MK-7 continued) does the source give for vitamin B12 here?
A: The tingling and numbness was “significant relief”.
